Test [1] is described as follows: Cell growth assay (WST-8) (Compounds B1-B278). The class given is cell-based. The conditions noted are these: 96 h; T47D cell line; WST-8, 4 days; read-out: Cell Growth Inhibition in T47D cell line IC50. The procedure:
Cell Growth Assay. The cells are seeded at certain concentration (e.g., at 1500/well) in multi-well plates overnight. Cells are subsequently treated with the compounds. A certain period of time (e.g., 4 days) after the compound treatment, 10% WST-8 reagent is added to the culture medium and incubate under certain condiction (e.g., in a CO2 incubator at 37° C. for 2.5 hours). The absorbance is measured on each sample using a microplate reader at certain wavelength (e.g., 450 nm). The relative absorbance is calculated against the vehicle control from three individually repeats.
Cell Growth Assay. The cells were seeded at 1500/well in 96 well plates overnight. One day after the seeding, they were treated with indicated doses of compounds respectively. 4 days after the compound treatment, 10% WST-8 reagent was added to the culture medium and incubate in a CO2 incubator at 37° C. for 2.5 hours. Before reading, the plate was mixed gently on an orbital shaker for one minute to ensure homogeneous distribution of color. The absorbance was measured of each sample using a microplate reader at a wavelength of 450 nm. The relative absorbance was calculated against the vehicle control from three individually repeats.
Background: Tetrazolium assays rely on reduction of a dye to a coloured formazan, in cell work by metabolically active cells.

A further test concerns the target ER (Homo sapiens (Human), UniProt P03372). Briefly: In-cell western blot analysis of relative ER percentage (Compounds B1-B278). It is filed as cell-based. The conditions noted are these: ER degradation, 16 hours, read-out: ICW DC50. The procedure:
In-cell western blot analysis. Cells are seeded in multi-well plates (e.g., at 40,000 or 10,000 cells/well). Diluted compounds at certain concentration are added (final 0.5% DMSO) and cells are incubated for […] (e.g., 16 hours). Formaldehyde (e.g., PBS:FA=9:1) is added and followed by washing with PBS. The cells are blocked with Licor blocking buffer (Li-Cor). The relative ER percentage in treated cells are obtained by comparing the values of treated wells to those in untreated and DMSO-treated wells as 100%.
In-cell western blot analysis. a. seed cells in black-sided/clear bottom 96- or 384-well plates at 40,000 or 10,000 cells/well, overnight; b. add diluted compounds (final 0.5% DMSO), 16 hours. 16 h later, remove medium, add 100 μL or 25 μL of 3.7-4.0% formaldehyde (PBS:FA=9:1), RT 20 min, no shaking; c. wash with PBS, and permeabilized with 100 μL or 25 μL/well of 1×PBS+0.1% Triton X-100 10 minutes; d. block with 100 μL or 25 μL Licor blocking buffer (Li-Cor), RT 1 h, moderate shaking; d. Add 100 μL or 25 μL of anti-ER (cs-8644, 1:500-1,000)+GAPDH(Millipore MAB374, 1:1000) in Block+0.05% Tween 20. RT 2 h, gentle shaking. Negative control: cells plus secondary antibodies (no primary antibodies); e. wash×4 with PBS +0.05-0.1% Tween 20, gentel shaking; f. anti-rabbit-680 and anti-mouse-800 (both 1:1000 in LiCor block +0.05% Tween20, RT 1 h, gentle shaking, no light. LI-COR: 0.2% to reduce background; g. wash×4 with PBS+0.05% Tween 20, gental shaking; h. add 100 μL or 25 μL of PBS to each well and read on CLX plate reader. The relative ER percentage in treated cells were obtained by comparing the values of treated wells to those in untreated and DMSO-treated wells as 100%.

These results are taken from US20260007681A1, “INDOLE DERIVATIVES AS ESTROGEN RECEPTOR DEGRADERS” (REGENTS OF THE UNIVERSITY OF MICHIGAN, priority 2022, published 2026).

Structures are written as SMILES. Where only a bound is given, the exact number is not on record here.

Sequence of ER (P03372 whole entry): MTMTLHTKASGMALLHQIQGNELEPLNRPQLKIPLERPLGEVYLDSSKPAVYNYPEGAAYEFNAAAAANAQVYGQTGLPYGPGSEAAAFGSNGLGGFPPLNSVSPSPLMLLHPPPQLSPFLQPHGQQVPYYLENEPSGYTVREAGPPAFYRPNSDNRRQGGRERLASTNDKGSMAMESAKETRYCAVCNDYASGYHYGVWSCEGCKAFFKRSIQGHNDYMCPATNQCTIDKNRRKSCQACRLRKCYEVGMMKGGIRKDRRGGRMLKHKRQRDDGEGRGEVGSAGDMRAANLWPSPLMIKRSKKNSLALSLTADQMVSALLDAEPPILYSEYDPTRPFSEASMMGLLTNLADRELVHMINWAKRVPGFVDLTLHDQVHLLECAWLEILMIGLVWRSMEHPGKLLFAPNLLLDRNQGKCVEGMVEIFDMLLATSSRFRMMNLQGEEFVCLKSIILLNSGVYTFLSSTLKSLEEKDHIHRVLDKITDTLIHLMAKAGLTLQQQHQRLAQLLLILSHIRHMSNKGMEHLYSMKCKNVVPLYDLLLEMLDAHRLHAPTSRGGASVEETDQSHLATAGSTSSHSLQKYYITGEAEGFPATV

For the compound `C[C@@H]1Cc2c([nH]c3ccccc23)[C@@H](c2cnc(N3CCC(CCN4CCN5c6cc7c(cc6OC[C@@H]5C4)C(=O)N(C4CCC(=O)NC4=O)C7)CC3)nc2)N1CC(F)F` (stereo partly drawn) [Compound B121, 3-((S)-3-(2-(1-(5-((1R,3R)-2-(2,2-difluoroethyl)-3-methyl-2,3,4,9-tetrahydro-1H-pyrido[3,4-b]indol-1-yl)pyrimidin-2-yl)piperidin-4-yl)ethyl)-8-oxo-1,2,3,4,4a,5,8,10-octahydro-9H-pyrazino[1′,2′:4,5][1,4]oxazino[2,3-f]isoindol-9-yl)piperidine-2,6-dione], the IC50 (in general, the concentration at which inhibition is half-maximal) in test [1] was in the range of 1 to 10 nM. For the same compound, the DC50 (commonly the midpoint of the concentration-degradation curve) on ER is less than 10 nM.
For `C[C@@H]1Cc2c([nH]c3ccccc23)[C@@H](c2cnc(N3CC[C@H](CCN4CCN5c6cc7c(cc6OC[C@@H]5C4)C(=O)N(C4CCC(=O)NC4=O)C7)C3)nc2)N1CC(F)F` (stereo partly drawn) [Compound B122, 3-((S)-3-(2-((S)-1-(5-((1R,3R)-2-(2,2-difluoroethyl)-3-methyl-2,3,4,9-tetrahydro-1H-pyrido[3,4-b]indol-1-yl)pyrimidin-2-yl)pyrrolidin-3-yl)ethyl)-8-oxo-1,2,3,4,4a,5,8,10-octahydro-9H-pyrazino[1′,2′:4,5][1,4]oxazino[2,3-f]isoindol-9-yl)piperidine-2,6-dione], in that order: 1 to 10 nM and 10 to 100 nM.
For `C[C@@H]1Cc2c([nH]c3ccccc23)[C@@H](c2cnc(N3CCC(OCCN4CCN5c6cc7c(cc6OC[C@@H]5C4)C(=O)N([C@@H]4CCC(=O)NC4=O)C7)CC3)nc2)N1CC(F)F` [Compound B123, (R)-3-((S)-3-(2-((1-(5-((1R,3R)-2-(2,2-difluoroethyl)-3-methyl-2,3,4,9-tetrahydro-1H-pyrido[3,4-b]indol-1-yl)pyrimidin-2-yl)piperidin-4-yl)oxy)ethyl)-8-oxo-1,2,3,4,4a,5,8,10-octahydro-9H-pyrazino[1′,2′:4,5][1,4]oxazino[2,3-f]isoindol-9-yl)piperidine-2,6-dione], in that order: 1 to 10 nM and 10 to 100 nM.
For `C[C@@H]1Cc2c([nH]c3ccccc23)[C@@H](c2cnc(N3CC4(CCC(CN5CCN6c7ccc8c(c7N(C)C[C@@H]6C5)CN(C5CCC(=O)NC5=O)C8=O)CC4)C3)nc2)N1CC(F)F` (stereo partly drawn) [Compound B125, 3-((S)-7-((2-(5-((1R,3R)-2-(2,2-difluoroethyl)-3-methyl-2,3,4,9-tetrahydro-1H-pyrido[3,4-b]indol-1-yl)pyrimidin-2-yl)-2-azaspiro[3.5]nonan-7-yl)methyl)-4-methyl-1-oxo-3,4,5,5a,6,7,8,9-octahydropyrazino[1,2-a]pyrrolo[3,4-f]quinoxalin-2(1H)-yl)piperidine-2,6-dione], in that order: greater than 10 nM and 10 to 100 nM.
With `C[C@@H]1Cc2c([nH]c3ccccc23)[C@@H](c2cnc(N3CCC4(CC3)CC(CN3CCN5c6ccc7c(c6N(C)C[C@@H]5C3)CN(C3CCC(=O)NC3=O)C7=O)C4)nc2)N1CC(F)F` (stereo partly drawn) [Compound B126, 3-((S)-7-((7-(5-((1R,3R)-2-(2,2-difluoroethyl)-3-methyl-2,3,4,9-tetrahydro-1H-pyrido[3,4-b]indol-1-yl)pyrimidin-2-yl)-7-azaspiro[3.5]nonan-2-yl)methyl)-4-methyl-1-oxo-3,4,5,5a,6,7,8,9-octahydropyrazino[1,2-a]pyrrolo[3,4-f]quinoxalin-2(1H)-yl)piperidine-2,6-dione], the IC50 in test [1] was greater than 10 nM. The DC50 on ER is 10 to 100 nM.
With `C[C@@H]1Cc2c([nH]c3ccccc23)[C@@H](c2cnc(N3CCC(CN4CCC5(CCOc6c5ccc5c6CN(C6CCC(=O)NC6=O)C5=O)CC4)CC3)nc2)N1CC(F)F` (stereo partly drawn) [Compound B127, 3-(1-((1-(5-((1R,3R)-2-(2,2-difluoroethyl)-3-methyl-2,3,4,9-tetrahydro-1H-pyrido[3,4-b]indol-1-yl)pyrimidin-2-yl)piperidin-4-yl)methyl)-7′-oxo-2′,3′,7′,9′-tetrahydro-8′H-spiro[piperidine-4,4′-pyrano[2,3-e]isoindol]-8′-yl)piperidine-2,6-dione], in test [1], the half-maximal inhibitory concentration (IC50) was in the range of 1 to 10 nM. Moreover, on ER, the DC50 lay in the range of 10 to 100 nM.
Take `COc1cc(N2CCC3(CCN(C(=O)CN4Cc5cc6c(cc5C4)C(=O)N(C4CCC(=O)NC4=O)C6=O)CC3)CC2)ccc1[C@@H]1c2[nH]c3ccccc3c2C[C@@H](C)N1CC(F)F` (stereo partly drawn) [Compound B128, 6-(2-(9-(4-((1R,3R)-2-(2,2-difluoroethyl)-3-methyl-2,3,4,9-tetrahydro-1H-pyrido[3,4-b]indol-1-yl)-3-methoxyphenyl)-3,9-diazaspiro[5.5]undecan-3-yl)-2-oxoethyl)-2-(2,6-dioxopiperidin-3-yl)-6,7-dihydropyrrolo[3,4-f]isoindole-1,3(2H,5H)-dione]: the IC50 in test [1] is 1 to 10 nM. The 50% degradation concentration (DC50) on ER is less than 10 nM.
For `COc1cc(N2CC3(CCC(CN4CCC5(CC4)COc4c5ccc5c4CN(C4CCC(=O)NC4=O)C5=O)CC3)C2)ccc1[C@@H]1c2[nH]c3ccccc3c2C[C@@H](C)N1CC(F)F` (stereo partly drawn) [Compound B129, 3-(1′-((2-(4-((1R,3R)-2-(2,2-difluoroethyl)-3-methyl-2,3,4,9-tetrahydro-1H-pyrido[3,4-b]indol-1-yl)-3-methoxyphenyl)-2-azaspiro[3.5]nonan-7-yl)methyl)-6-oxo-6,8-dihydro-2H,7H-spiro[furo[2,3-e]isoindole-3,4′-piperidin]-7-yl)piperidine-2,6-dione], in that order: less than 1 nM and 10 to 100 nM.
For `COc1c2c(cc3c1CN(C1CCC(=O)NC1=O)C3=O)CN(CC(=O)N1CCC3(CC1)CCN(c1cc(F)c([C@@H]4c5[nH]c6ccccc6c5C[C@@H](C)N4CC(F)F)c(F)c1)CC3)C2` (stereo partly drawn) [Compound B130, 3-(6-(2-(9-(4-((1R,3R)-2-(2,2-difluoroethyl)-3-methyl-2,3,4,9-tetrahydro-1H-pyrido[3,4-b]indol-1-yl)-3,5-difluorophenyl)-3,9-diazaspiro[5.5]undecan-3-yl)-2-oxoethyl)-4-methoxy-1-oxo-3,5,6,7-tetrahydropyrrolo[3,4-f]isoindol-2(1H)-yl)piperidine-2,6-dione], in that order: 1 to 10 nM and 10 to 100 nM.
As to `C[C@@H]1Cc2c([nH]c3ccccc23)[C@@H](c2cnc(N3CCC4(CC3)CC(CN3CCN5c6cc7c(cc6OC[C@@H]5C3)C(=O)N(C3CCC(=O)NC3=O)C7)C4)nc2)N1CC(F)F` (stereo partly drawn) [Compound B135, 3-((S)-3-((7-(5-((1R,3R)-2-(2,2-difluoroethyl)-3-methyl-2,3,4,9-tetrahydro-1H-pyrido[3,4-b]indol-1-yl)pyrimidin-2-yl)-7-azaspiro[3.5]nonan-2-yl)methyl)-8-oxo-1,2,3,4,4a,5,8,10-octahydro-9H-pyrazino[1′,2′:4,5][1,4]oxazino[2,3-f]isoindol-9-yl)piperidine-2,6-dione], the half-inhibitory concentration (IC50) in test [1] was in the range of 1 to 10 nM. Besides, the DC50 at ER is less than 10 nM.
As to `C[C@@H]1Cc2c([nH]c3ccccc23)[C@@H](c2cnc(N3CCC4(CCC(CN5CCN6c7cc8c(cc7OC[C@@H]6C5)C(=O)N(C5CCC(=O)NC5=O)C8)CC4)CC3)nc2)N1CC(F)F` (stereo partly drawn) [Compound B136, 3-((S)-3-((3-(5-((1R,3R)-2-(2,2-difluoroethyl)-3-methyl-2,3,4,9-tetrahydro-1H-pyrido[3,4-b]indol-1-yl)pyrimidin-2-yl)-3-azaspiro[5.5]undecan-9-yl)methyl)-8-oxo-1,2,3,4,4a,5,8,10-octahydro-9H-pyrazino[1′,2′:4,5][1,4]oxazino[2,3-f]isoindol-9-yl)piperidine-2,6-dione], the IC50 in test [1] is greater than 10 nM. Further, the DC50 on ER is 10 to 100 nM.
